Test results taken from ChEMBL document CHEMBL4118122, “Identification and biological evaluation of thiazole-based inverse agonists of RORγt” (Bioorg Med Chem Lett, 2018).

What was measured:
B2 bradykinin receptor = B2 bradykinin receptor (Homo sapiens, UniProt P30411); experiment: Displacement of [3H]bradykinin from human recombinant B2 receptor after 60 mins by scintillation counting analysis
Nociceptin receptor = Nociceptin receptor (Homo sapiens, UniProt P41146); experiment: Displacement of [3H]nociceptin from human recombinant NOP receptor at 1 uM after 60 mins by scintillation counting analysis relative to control
[1] = target: Muscarinic acetylcholine receptor M2 (Homo sapiens) (UniProt P08172); experiment: Displacement of [3H]AF-DX 384 from human recombinant M2 receptor at 1 uM after 60 mins by scintillation counting analysis relative to control
[2] = target: 5-hydroxytryptamine receptor 1B (Rattus norvegicus) (UniProt P28564); experiment: Displacement of [125I]-CYP from rat brain 5-HT1B receptor at 10 uM after 120 mins by scintillation counting analysis relative to control
[3] = target: G protein-coupled receptor kinase 4 (Homo sapiens) (UniProt P32298); experiment: Inhibition of recombinant human full length GST-tagged GRK4 expressed in baculovirus expression system at 10 uM in presence of ATP relative to control
Mu-type opioid receptor = Mu-type opioid receptor (Homo sapiens, UniProt P35372); experiment: Displacement of [3H]DAMGO from human recombinant mu receptor at 1 uM after 120 mins by scintillation counting analysis relative to control
[4] = target: Muscarinic acetylcholine receptor M1 (Homo sapiens) (UniProt P11229); experiment: Displacement of […] from human recombinant M1 receptor at 10 uM after 60 mins by scintillation counting analysis relative to control
[5] = target: Type-1 angiotensin II receptor (Homo sapiens) (UniProt P30556); experiment: Displacement of [125I][Sar1,Ile8]-AT-II from human recombinant AT1 receptor at 1 uM after 120 mins by scintillation counting analysis relative to control
Rattus norvegicus [6] = organism: Rattus norvegicus; experiment: Displacement of [125I]alpha-dendrotoxin from rat brain voltage-gated K channel at 10 uM after 60 mins by scintillation counting analysis relative to control
D(1A) dopamine receptor [7] = target: T1, D(1A) dopamine receptor (Homo sapiens, UniProt P21728); experiment: Displacement of [3H]-SCH 23390 from human recombinant dopamine D1 receptor at 10 uM after 60 mins by scintillation counting analysis relative to control
[8] = target: Sodium-dependent noradrenaline transporter (Homo sapiens, UniProt P23975); experiment: Displacement of [3H]nisoxetine from recombinant human norepinephrine transporter at 1 uM after 120 mins by scintillation counting analysis relative to control
Homo sapiens = organism: Homo sapiens; experiment: Binding affinity to GABA-gated chloride channel (unknown origin) at 10 uM by antagonist radioligand binding assay relative to control
[9] = target: Delta-type opioid receptor (Homo sapiens, UniProt P41143); experiment: Displacement of [3H]DADLE from human recombinant delta opioid receptor after 60 mins by scintillation counting analysis
[10] = target: NT-3 growth factor receptor (Homo sapiens) (UniProt Q16288); experiment: Inhibition of recombinant full length His-tagged human NTRK3 (510 to 825 residues) cytoplasmic domain expressed in baculovirus expression system at 10 uM in presence of ATP relative to control
[11] = target: Substance-K receptor (Homo sapiens) (UniProt P21452); experiment: Displacement of [125I]NKA from human recombinant NK2 receptor at 10 uM after 60 mins by scintillation counting analysis relative to control
[12] = target: Insulin-like growth factor 1 receptor (Homo sapiens) (UniProt P08069); experiment: Inhibition of recombinant His-tagged human IGF1R cytoplasmic domain (960 to […] residues) expressed in baculovirus expression system at 10 uM in presence of ATP relative to control
[13] = target: Protein kinase C alpha type (Homo sapiens) (UniProt P17252); experiment: Inhibition of recombinant full length human PKCalpha expressed in baculovirus expression system at 10 uM in presence of ATP relative to control
[14] = target: C-X-C chemokine receptor type 2 (Homo sapiens, UniProt P25025); experiment: Displacement of [125I]IL-8 from human recombinant CXCR2 receptor after 60 mins by scintillation counting analysis
[15] = target: Mitogen-activated protein kinase 1 (Homo sapiens) (UniProt P28482); experiment: Inhibition of recombinant GST-tagged human ERK2 expressed in Escherichia coli at 10 uM in presence of ATP relative to control
[16] = target: Muscarinic acetylcholine receptor M1 (Homo sapiens) (UniProt P11229); experiment: Displacement of […] from human recombinant M1 receptor at 1 uM after 60 mins by scintillation counting analysis relative to control
[17] = target: Cyclin-dependent kinase 1/cyclin B1 (Homo sapiens) (UniProt P06493+P14635); experiment: Inhibition of recombinant full length His-tagged human CDK1/Cyclin B expressed in baculovirus expression system at 10 uM in presence of ATP relative to control
[18] = target: Neurotensin receptor type 1 (Homo sapiens, UniProt P30989); experiment: Displacement of [125I]Tyr3-neurotensin from human recombinant NTS1 receptor after 120 mins by scintillation counting analysis
[19] = target: B2 bradykinin receptor (Homo sapiens) (UniProt P30411); experiment: Displacement of [3H]bradykinin from human recombinant B2 receptor at 10 uM after 60 mins by scintillation counting analysis relative to control
[20] = target: Neuropeptide Y receptor type 2 (Homo sapiens) (UniProt P49146); experiment: Displacement of [125I]peptide YY from human Y2 receptor at 10 uM after 120 mins by scintillation counting analysis relative to control
Histamine H2 receptor = Histamine H2 receptor (Homo sapiens, UniProt P25021); experiment: Displacement of [125I]APT from human recombinant histamine H2 receptor after 120 mins by scintillation counting analysis
Rattus norvegicus [21] = organism: Rattus norvegicus; experiment: Displacement of [125I]alpha-dendrotoxin from rat brain voltage-gated K channel at 1 uM after 60 mins by scintillation counting analysis relative to control
Cytochrome P450 2C19 = Cytochrome P450 2C19 (Homo sapiens, UniProt P33261); experiment: Inhibition of CYP2C19 (unknown origin); type: ADME
[22] = target: Proto-oncogene tyrosine-protein kinase receptor Ret (Homo sapiens) (UniProt P07949); experiment: Inhibition of recombinant GST-tagged human RET cytoplasmic domain (658 to 1114 residues) expressed in baculovirus expression system at 10 uM in presence of ATP relative to control
Vasopressin V1a receptor = Vasopressin V1a receptor (Homo sapiens, UniProt P37288); experiment: Displacement of [3H]AVP from human recombinant V1a receptor after 60 mins by scintillation counting analysis
[23] = target: Dual specificity protein kinase CLK2 (Homo sapiens) (UniProt P49760); experiment: Inhibition of recombinant GST-tagged human CLK2 catalytic domain (137 to 498 residues) expressed in baculovirus expression system at 10 uM in presence of ATP relative to control
D(1A) dopamine receptor [24] = target: T1, D(1A) dopamine receptor; experiment: Displacement of [3H]-SCH 23390 from human recombinant dopamine D1 receptor at 1 uM after 60 mins by scintillation counting analysis relative to control
[25] = target: Activin receptor type-1B (Homo sapiens) (UniProt P36896); experiment: Inhibition of recombinant GST-tagged human ACVR1B catalytic domain (150 to 505 residues) expressed in baculovirus expression system at 10 uM in presence of ATP relative to control
[26] = AUC (0 to infinity) in Sprague-Dawley rat at 5 mg/kg, po; type: ADME, organism-based; design: dose 5 mg/kg, route oral, time infinity; settings: in vivo

Chain of Muscarinic acetylcholine receptor M1 (Homo sapiens) (P11229 whole entry): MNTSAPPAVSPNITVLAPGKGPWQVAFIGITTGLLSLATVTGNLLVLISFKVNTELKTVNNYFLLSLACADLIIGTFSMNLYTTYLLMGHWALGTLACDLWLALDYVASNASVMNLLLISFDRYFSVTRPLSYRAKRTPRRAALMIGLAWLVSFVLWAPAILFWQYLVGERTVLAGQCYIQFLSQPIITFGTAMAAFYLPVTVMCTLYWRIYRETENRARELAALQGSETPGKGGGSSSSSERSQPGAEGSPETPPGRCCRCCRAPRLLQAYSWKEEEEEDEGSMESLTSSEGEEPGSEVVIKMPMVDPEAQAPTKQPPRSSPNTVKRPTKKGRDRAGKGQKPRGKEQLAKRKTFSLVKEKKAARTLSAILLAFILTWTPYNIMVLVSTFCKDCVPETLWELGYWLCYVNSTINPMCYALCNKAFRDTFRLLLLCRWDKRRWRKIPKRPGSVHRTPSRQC
T1 sequence (P21728 whole entry): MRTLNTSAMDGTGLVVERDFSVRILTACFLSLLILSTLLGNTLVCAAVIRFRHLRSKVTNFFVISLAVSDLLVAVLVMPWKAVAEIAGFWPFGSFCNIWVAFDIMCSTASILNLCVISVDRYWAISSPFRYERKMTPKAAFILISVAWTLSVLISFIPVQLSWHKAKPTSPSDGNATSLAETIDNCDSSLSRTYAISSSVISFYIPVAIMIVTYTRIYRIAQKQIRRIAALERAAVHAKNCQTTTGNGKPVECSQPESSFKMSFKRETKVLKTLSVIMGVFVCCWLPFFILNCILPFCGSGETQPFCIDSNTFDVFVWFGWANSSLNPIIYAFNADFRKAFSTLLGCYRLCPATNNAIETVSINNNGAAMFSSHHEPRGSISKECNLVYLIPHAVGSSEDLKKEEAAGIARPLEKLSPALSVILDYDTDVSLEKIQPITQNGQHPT
Chain of Proto-oncogene tyrosine-protein kinase receptor Ret (Homo sapiens) (P07949 whole entry, the tested form may be a part): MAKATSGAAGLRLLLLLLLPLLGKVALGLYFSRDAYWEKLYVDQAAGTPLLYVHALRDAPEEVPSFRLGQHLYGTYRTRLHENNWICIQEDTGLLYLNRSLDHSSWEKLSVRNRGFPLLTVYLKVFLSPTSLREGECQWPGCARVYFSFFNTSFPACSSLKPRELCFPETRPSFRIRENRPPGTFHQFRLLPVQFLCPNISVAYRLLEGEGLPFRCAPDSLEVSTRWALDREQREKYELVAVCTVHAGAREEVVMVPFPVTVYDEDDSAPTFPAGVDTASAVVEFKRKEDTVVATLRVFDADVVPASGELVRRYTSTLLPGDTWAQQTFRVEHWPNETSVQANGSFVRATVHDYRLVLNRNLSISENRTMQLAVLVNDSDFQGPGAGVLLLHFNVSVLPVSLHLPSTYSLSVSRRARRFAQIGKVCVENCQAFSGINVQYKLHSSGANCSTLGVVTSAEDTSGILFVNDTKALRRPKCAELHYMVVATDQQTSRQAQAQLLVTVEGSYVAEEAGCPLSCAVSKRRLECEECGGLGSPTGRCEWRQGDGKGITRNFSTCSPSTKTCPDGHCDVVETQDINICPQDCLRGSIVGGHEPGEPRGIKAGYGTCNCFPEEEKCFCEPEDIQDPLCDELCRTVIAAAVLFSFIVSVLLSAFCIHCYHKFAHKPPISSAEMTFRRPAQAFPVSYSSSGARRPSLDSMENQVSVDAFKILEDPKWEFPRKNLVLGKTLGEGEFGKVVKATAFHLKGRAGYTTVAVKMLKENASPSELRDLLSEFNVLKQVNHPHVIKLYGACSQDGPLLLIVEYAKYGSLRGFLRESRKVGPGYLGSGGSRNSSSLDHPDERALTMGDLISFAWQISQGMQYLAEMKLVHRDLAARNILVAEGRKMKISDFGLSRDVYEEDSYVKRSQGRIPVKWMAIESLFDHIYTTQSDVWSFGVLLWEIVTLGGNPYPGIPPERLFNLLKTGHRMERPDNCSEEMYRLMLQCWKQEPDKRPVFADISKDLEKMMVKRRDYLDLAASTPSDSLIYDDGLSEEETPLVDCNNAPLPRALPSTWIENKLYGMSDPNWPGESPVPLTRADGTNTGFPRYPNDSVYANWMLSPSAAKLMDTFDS
Chain of Delta-type opioid receptor (P41143 whole entry, the tested form may be a part): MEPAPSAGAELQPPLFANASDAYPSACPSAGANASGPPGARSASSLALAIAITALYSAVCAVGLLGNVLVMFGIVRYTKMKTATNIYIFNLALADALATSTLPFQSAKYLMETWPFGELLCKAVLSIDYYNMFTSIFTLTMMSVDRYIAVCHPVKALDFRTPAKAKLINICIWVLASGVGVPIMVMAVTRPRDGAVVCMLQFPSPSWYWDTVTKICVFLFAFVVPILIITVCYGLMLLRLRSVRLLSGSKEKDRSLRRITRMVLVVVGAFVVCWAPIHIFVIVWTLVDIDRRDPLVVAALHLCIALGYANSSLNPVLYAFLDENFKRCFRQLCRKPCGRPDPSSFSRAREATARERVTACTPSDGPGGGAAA
Chain of Type-1 angiotensin II receptor (Homo sapiens) (P30556 whole entry): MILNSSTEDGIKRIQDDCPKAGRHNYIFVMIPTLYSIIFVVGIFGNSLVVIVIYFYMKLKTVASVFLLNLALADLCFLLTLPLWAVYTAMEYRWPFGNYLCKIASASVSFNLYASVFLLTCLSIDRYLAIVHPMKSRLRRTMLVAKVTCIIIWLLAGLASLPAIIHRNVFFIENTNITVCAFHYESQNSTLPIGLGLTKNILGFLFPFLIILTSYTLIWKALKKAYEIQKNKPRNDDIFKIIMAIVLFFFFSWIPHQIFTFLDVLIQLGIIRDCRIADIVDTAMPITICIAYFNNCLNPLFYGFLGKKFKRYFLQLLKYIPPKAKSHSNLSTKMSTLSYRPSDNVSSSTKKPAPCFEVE
Chain of Vasopressin V1a receptor (P37288 whole entry, the tested form may be a part): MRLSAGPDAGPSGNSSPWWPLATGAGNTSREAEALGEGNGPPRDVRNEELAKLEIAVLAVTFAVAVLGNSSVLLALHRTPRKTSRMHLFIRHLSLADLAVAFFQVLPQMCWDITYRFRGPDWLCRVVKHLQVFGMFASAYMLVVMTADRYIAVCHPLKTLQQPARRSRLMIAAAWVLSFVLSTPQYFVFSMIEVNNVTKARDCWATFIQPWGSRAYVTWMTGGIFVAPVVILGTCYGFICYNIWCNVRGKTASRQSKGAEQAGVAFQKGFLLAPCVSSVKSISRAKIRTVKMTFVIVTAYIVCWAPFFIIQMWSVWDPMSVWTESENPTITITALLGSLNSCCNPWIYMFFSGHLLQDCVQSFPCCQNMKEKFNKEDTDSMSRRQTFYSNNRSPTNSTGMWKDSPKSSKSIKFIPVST
Chain of Mitogen-activated protein kinase 1 (Homo sapiens) (P28482 whole entry): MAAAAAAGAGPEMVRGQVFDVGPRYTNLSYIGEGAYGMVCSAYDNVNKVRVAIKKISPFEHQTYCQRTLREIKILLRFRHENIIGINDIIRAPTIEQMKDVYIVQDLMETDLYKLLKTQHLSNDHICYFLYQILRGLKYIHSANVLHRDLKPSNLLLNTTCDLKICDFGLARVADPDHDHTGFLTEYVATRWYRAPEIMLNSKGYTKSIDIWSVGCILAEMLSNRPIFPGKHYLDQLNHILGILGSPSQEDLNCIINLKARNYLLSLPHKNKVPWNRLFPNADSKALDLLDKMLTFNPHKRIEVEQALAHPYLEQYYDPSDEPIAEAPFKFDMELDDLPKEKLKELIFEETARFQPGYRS
Chain of Neurotensin receptor type 1 (P30989 whole entry): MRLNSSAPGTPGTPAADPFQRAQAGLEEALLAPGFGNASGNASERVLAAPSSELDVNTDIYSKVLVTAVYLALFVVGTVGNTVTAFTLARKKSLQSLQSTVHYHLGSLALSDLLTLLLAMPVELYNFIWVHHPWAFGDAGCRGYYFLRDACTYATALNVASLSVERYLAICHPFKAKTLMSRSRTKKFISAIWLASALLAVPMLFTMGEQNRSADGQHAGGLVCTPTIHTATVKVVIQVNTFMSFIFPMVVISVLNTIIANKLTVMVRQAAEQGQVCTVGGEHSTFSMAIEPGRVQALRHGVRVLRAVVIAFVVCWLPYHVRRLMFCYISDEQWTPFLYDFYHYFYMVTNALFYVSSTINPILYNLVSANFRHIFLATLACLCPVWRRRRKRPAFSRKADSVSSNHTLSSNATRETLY
Chain of 5-hydroxytryptamine receptor 1B (Rattus norvegicus) (P28564 whole entry): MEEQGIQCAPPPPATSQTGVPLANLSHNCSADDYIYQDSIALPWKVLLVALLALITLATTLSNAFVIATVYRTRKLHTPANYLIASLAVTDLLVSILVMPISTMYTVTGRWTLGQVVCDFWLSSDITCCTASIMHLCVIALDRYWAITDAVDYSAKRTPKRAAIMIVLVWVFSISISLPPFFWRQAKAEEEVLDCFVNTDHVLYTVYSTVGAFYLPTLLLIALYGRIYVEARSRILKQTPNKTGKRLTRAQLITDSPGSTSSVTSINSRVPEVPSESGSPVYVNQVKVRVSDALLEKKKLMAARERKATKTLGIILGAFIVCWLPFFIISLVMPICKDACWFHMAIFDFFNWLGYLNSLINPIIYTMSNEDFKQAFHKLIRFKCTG
Chain of Cytochrome P450 2C19 (P33261 whole entry, the tested form may be a part): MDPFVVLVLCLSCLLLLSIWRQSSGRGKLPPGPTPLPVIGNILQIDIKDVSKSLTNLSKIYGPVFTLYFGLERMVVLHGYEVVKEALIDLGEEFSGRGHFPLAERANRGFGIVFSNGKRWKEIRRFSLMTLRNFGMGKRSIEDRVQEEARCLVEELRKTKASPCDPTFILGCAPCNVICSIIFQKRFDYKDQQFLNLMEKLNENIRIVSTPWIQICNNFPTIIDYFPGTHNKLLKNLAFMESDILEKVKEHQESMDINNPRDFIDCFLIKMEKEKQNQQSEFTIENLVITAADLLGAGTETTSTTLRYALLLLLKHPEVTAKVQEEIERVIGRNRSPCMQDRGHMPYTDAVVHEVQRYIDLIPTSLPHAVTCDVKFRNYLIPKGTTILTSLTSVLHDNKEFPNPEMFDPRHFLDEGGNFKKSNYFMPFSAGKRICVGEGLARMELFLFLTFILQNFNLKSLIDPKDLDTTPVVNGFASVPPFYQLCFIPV

## CC(C)(C)NS(=O)(=O)c1ccc(-c2sc(C(=O)N[C@H]3C[C@H](C(=O)O)C3)nc2CC2CCCCC2)c2ccccc12
B2 bradykinin receptor
  IC50: 21 nM
Nociceptin receptor
  inhibition: < 10%
[1]
  inhibition: < 10%
[2]
  inhibition: < 10%
[3]
  inhibition: -3%
Mu-type opioid receptor
  inhibition: < 10%
[4]
  inhibition: < 10%
[5]
  inhibition: < 10%
Rattus norvegicus [6]
  inhibition: < 10%
D(1A) dopamine receptor [7]
  inhibition: 12%
[8]
  inhibition: < 10%
Homo sapiens
  inhibition: 86%
[9]
  IC50: 6 nM
[10]
  inhibition: -10%
[11]
  inhibition: < 10%
[12]
  inhibition: -10%
[13]
  inhibition: -1%
[14]
  IC50: 0.24 nM
[15]
  inhibition: -6%
[16]
  inhibition: < 10%
[17]
  inhibition: -3%
[18]
  IC50: 0.25 nM
[19]
  inhibition: < 10%
[20]
  inhibition: < 10%
Histamine H2 receptor
  IC50: 142 nM
Rattus norvegicus [21]
  inhibition: < 10%
Cytochrome P450 2C19
  INH: > 10 µM
[22]
  inhibition: -3%
Vasopressin V1a receptor
  IC50: 1.1 nM
[23]
  inhibition: -1%
D(1A) dopamine receptor [24]
  inhibition: < 10%
[25]
  inhibition: -2%
[26]
  AUC(0-inf): 328 ng·h/mL
